How the values were obtained:
S. aureus ATCC 13709 = test: MIC, NCCLS broth microdilution; format: cell-based, Staphylococcus aureus; details: A = S. aureus ATCC 13709 (MSSA)
In short: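 Compounds were serially diluted in broth and tested against each strain according to NCCLS guidelines, with MIC taken as the endpoint. C. albicans was assayed per the Manual of Clinical Microbiology.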

S. aureus ATCC 27660 = test: MIC, NCCLS broth microdilution; format: cell-based, Staphylococcus aureus; details: B = S. aureus ATCC 27660 (MRSA)
In short: (§1)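 Broth microdilution, NCCLS M7-A4/M11-A4/M27-T guidelines; read-out MIC. MRSA strain for S. aureus. Candida: Manual of Clinical Microbiology method.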

E. faecalis ATCC 29212 = test: MIC, NCCLS broth microdilution; format: cell-based, Enterococcus faecalis; details: C = E. faecalis ATCC 29212
In short: (§2)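 Minimal inhibitory concentration determined by NCCLS broth microdilution in microtiter plates per documents M7-A4, M11-A4 and M27-T. S. aureus ATCC 27660 is a methicillin-resistant strain. The antifungal test on C. albicans followed the method recommended in the Manual of Clinical Microbiology (1995).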

B. cereus ATCC 11778 = test: MIC, NCCLS broth microdilution; format: cell-based, Bacillus cereus; details: D = B. cereus ATCC 11778
In short: as §1

S. pneumoniae ATCC 49619 = test: MIC, NCCLS broth microdilution; format: cell-based, Streptococcus pneumoniae; details: E = S. pneumoniae ATCC 49619
In short: as §2

C. albicans ATCC 38247 = test: MIC, antifungal assay; format: cell-based, Candida albicans; details: F = C. albicans ATCC 38247
In short: as §1

E. coli ATCC 25922 = test: MIC, NCCLS broth microdilution; format: cell-based, Escherichia coli; details: G = E. coli ATCC 25922
In short: as §2

[1] = test system: M. catarrhalis (ATCC 25238); test: MIC, NCCLS broth microdilution; format: cell-based, Moraxella (now Branhamella) catarrhalis; details: H = M. catarrhalis (ATCC 25238)
In short: as §1

Compound | Minimum Inhibitory Concentration (MIC) (S. aureus ATCC 13709) | Minimum Inhibitory Concentration (MIC) (S. aureus ATCC 27660) | Minimum Inhibitory Concentration (MIC) (E. faecalis ATCC 29212) | Minimum Inhibitory Concentration (MIC) (B. cereus ATCC 11778) | Minimum Inhibitory Concentration (MIC) (S. pneumoniae ATCC 49619) | Minimum Inhibitory Concentration (MIC) (C. albicans ATCC 38247) | Minimum Inhibitory Concentration (MIC) (E. coli ATCC 25922) | Minimum Inhibitory Concentration (MIC) [1]
Cn1cc(NC(=O)c2cc3ccccc3cn2)cc1C(=O)Nc1ccc(C(=O)Nc2cn(C)c(C(=O)NCCNCCN3CCCC3)n2)cc1 [Compound A-36] | +++ (MIC ≦ 4 μg/mL) | +++ (MIC ≦ 4 μg/mL) | +++ (MIC ≦ 4 μg/mL) | +++ (MIC ≦ 4 μg/mL) | +++ (MIC ≦ 4 μg/mL) | + (12 ≦ MIC ≦ 32 μg/mL) | >32 µg/mL | ++ (4 < MIC < 12 μg/mL)
CCCNCCNC(=O)c1nc(NC(=O)c2ccc(NC(=O)c3cc(NC(=O)c4cc5ccccc5cn4)cn3C)cc2)cn1C [Compound A-37] | +++ (MIC ≦ 4 μg/mL) | +++ (MIC ≦ 4 μg/mL) | +++ (MIC ≦ 4 μg/mL) | +++ (MIC ≦ 4 μg/mL) | +++ (MIC ≦ 4 μg/mL) | >32 µg/mL | +++ (MIC ≦ 4 μg/mL) | +++ (MIC ≦ 4 μg/mL)
COCC(C)NCCNC(=O)c1nc(NC(=O)c2ccc(NC(=O)c3cc(NC(=O)c4cc5ccccc5cn4)cn3C)cc2)cn1C (centres unmarked) [Compound A-38] | +++ (MIC ≦ 4 μg/mL) | +++ (MIC ≦ 4 μg/mL) | +++ (MIC ≦ 4 μg/mL) | +++ (MIC ≦ 4 μg/mL) | +++ (MIC ≦ 4 μg/mL) | >32 µg/mL | >32 µg/mL | +++ (MIC ≦ 4 μg/mL)
COCCCNCCNC(=O)c1nc(NC(=O)c2ccc(NC(=O)c3cc(NC(=O)c4cc5ccccc5cn4)cn3C)cc2)cn1C [Compound A-39] | +++ (MIC ≦ 4 μg/mL) | +++ (MIC ≦ 4 μg/mL) | +++ (MIC ≦ 4 μg/mL) | +++ (MIC ≦ 4 μg/mL) | +++ (MIC ≦ 4 μg/mL) | >32 µg/mL | >32 µg/mL | >32 µg/mL
Cn1cc(NC(=O)c2cc3ccccc3cn2)cc1C(=O)Nc1ccc(C(=O)Nc2cn(C)c(C(=O)NCCN3CCCCC3CN3CCCC3)n2)cc1 (centres unmarked) [Compound A-40] | +++ (MIC ≦ 4 μg/mL) | +++ (MIC ≦ 4 μg/mL) | +++ (MIC ≦ 4 μg/mL) | +++ (MIC ≦ 4 μg/mL) | +++ (MIC ≦ 4 μg/mL) | >32 µg/mL | >32 µg/mL | ++ (4 < MIC < 12 μg/mL)
Cn1cc(NC(=O)c2cc3ccccc3cn2)cc1C(=O)Nc1ccc(C(=O)Nc2cn(C)c(C(=O)NCCN3CCC(F)CC3)n2)cc1 [Compound A-41] | +++ (MIC ≦ 4 μg/mL) | +++ (MIC ≦ 4 μg/mL) | +++ (MIC ≦ 4 μg/mL) | +++ (MIC ≦ 4 μg/mL) | +++ (MIC ≦ 4 μg/mL) | >32 µg/mL | >32 µg/mL | +++ (MIC ≦ 4 μg/mL)
Cn1cc(NC(=O)c2cc3ccccc3cn2)cc1C(=O)Nc1ccc(C(=O)Nc2cn(C)c(C(=O)NCCNCCOCCOCCN)n2)cc1 [Compound A-42] | +++ (MIC ≦ 4 μg/mL) | +++ (MIC ≦ 4 μg/mL) | +++ (MIC ≦ 4 μg/mL) | ++ (4 < MIC < 12 μg/mL) | + (12 ≦ MIC ≦ 32 μg/mL) | + (12 ≦ MIC ≦ 32 μg/mL) | >32 µg/mL | >32 µg/mL
Cn1cc(NC(=O)c2cc3ccccc3cn2)cc1C(=O)Nc1ccc(C(=O)Nc2cn(C)c(C(=O)NCCNCCCO)n2)cc1 [Compound A-43] | +++ (MIC ≦ 4 μg/mL) | +++ (MIC ≦ 4 μg/mL) | +++ (MIC ≦ 4 μg/mL) | +++ (MIC ≦ 4 μg/mL) | +++ (MIC ≦ 4 μg/mL) | >32 µg/mL | >32 µg/mL | >32 µg/mL
Cn1cc(NC(=O)c2cc3ccccc3cn2)cc1C(=O)Nc1ccc(C(=O)Nc2cn(C)c(C(=O)NCCNCCO)n2)cc1 [Compound A-45] | +++ (MIC ≦ 4 μg/mL) | +++ (MIC ≦ 4 μg/mL) | +++ (MIC ≦ 4 μg/mL) | +++ (MIC ≦ 4 μg/mL) | +++ (MIC ≦ 4 μg/mL) | >32 µg/mL | >32 µg/mL | + (12 ≦ MIC ≦ 32 μg/mL)
CC(C)C(CO)NCCNC(=O)c1nc(NC(=O)c2ccc(NC(=O)c3cc(NC(=O)c4cc5ccccc5cn4)cn3C)cc2)cn1C (centres unmarked) [Compound A-46] | +++ (MIC ≦ 4 μg/mL) | +++ (MIC ≦ 4 μg/mL) | +++ (MIC ≦ 4 μg/mL) | +++ (MIC ≦ 4 μg/mL) | +++ (MIC ≦ 4 μg/mL) | >32 µg/mL | >32 µg/mL | ++ (4 < MIC < 12 μg/mL)
Cn1cc(NC(=O)c2cc3ccccc3cn2)cc1C(=O)Nc1ccc(C(=O)Nc2cn(C)c(C(=O)NCCN3CCNCC3)n2)cc1 [Compound A-47] | +++ (MIC ≦ 4 μg/mL) | +++ (MIC ≦ 4 μg/mL) | +++ (MIC ≦ 4 μg/mL) | +++ (MIC ≦ 4 μg/mL) | +++ (MIC ≦ 4 μg/mL) | + (12 ≦ MIC ≦ 32 μg/mL) | >32 µg/mL | +++ (MIC ≦ 4 μg/mL)
CCOC(=O)C1CCN(CCNC(=O)c2nc(NC(=O)c3ccc(NC(=O)c4cc(NC(=O)c5cc6ccccc6cn5)cn4C)cc3)cn2C)CC1 [Compound A-48] | +++ (MIC ≦ 4 μg/mL) | +++ (MIC ≦ 4 μg/mL) | +++ (MIC ≦ 4 μg/mL) | +++ (MIC ≦ 4 μg/mL) | +++ (MIC ≦ 4 μg/mL) | >32 µg/mL | >32 µg/mL | +++ (MIC ≦ 4 μg/mL)
Cn1cc(NC(=O)c2cc3ccccc3cn2)cc1C(=O)Nc1ccc(C(=O)Nc2cn(C)c(C(=O)NCCNC(CO)(CO)CO)n2)cc1 [Compound A-49] | +++ (MIC ≦ 4 μg/mL) | +++ (MIC ≦ 4 μg/mL) | + (12 ≦ MIC ≦ 32 μg/mL) | >32 µg/mL | +++ (MIC ≦ 4 μg/mL) | >32 µg/mL | >32 µg/mL | >32 µg/mL
